Data from article PMC6966494, “Surface Plasmon Resonance as a Tool for Ligand Binding Investigation of Engineered GPR17 Receptor, a G Protein Coupled Receptor Involved in Myelination” (Frontiers in Chemistry, 2020).

What was measured:
[1] = system: GPR17; set-up: method as in earlier work; conditions: literature functional assay, ref Abbracchio et al., 2006, Ciana et al., Eberini et al., 2011; cited from earlier work
[2] = target: T1, GPR17 (Rattus norvegicus, UniProt Q09QM4); experiment: cAMP assay: inhibition of forskolin-stimulated adenylyl cyclase activity in primary OPCs; format: cell-based
T1 construct: oligodendrocyte precursor cells (OPCs) natively expressing GPR17; endogenous in cells; host or cells: primary OPCs from postnatal day 2 Sprague-Dawley rat cortex
Method: (§1) The pharmacological profile of Asinex 1 was assessed in three different in vitro assays of increasing complexity in oligodendrocyte precursor cells (OPCs) natively expressing GPR17. Primary rat OPCs were cultured either alone or in the presence of mouse DRG neurons, according to a well-established protocol, previously described in Fumagalli et al. ([2015]). The endogenous GPR17 ligands UDP and LTD4 were selected as reference ligands. For more details on culture preparation and analysis, see Supplementary Information.
In order to determine the intracellular cAMP levels, primary purified OPCs were treated with Asinex 1 after 6 days in culture, when GPR17 expression reaches the maximum peak. A competitive protein binding method was used following the procedure previously described (Fumagalli et al., [2015]). Briefly, culture medium was removed, and cells were incubated at 37°C for 15 min with 400 μL of Neurobasal medium in the presence of the phosphodiesterase inhibitor Ro20-1724 (20 μM). The concentration-response curve of tested ligands was assessed by measuring their ability to inhibit cAMP accumulation stimulated by 10 μM forskolin. Asinex 1 was added to cells for 15 min at graded concentration (0.1–50 nM). […] Reactions were terminated by medium removal and addition of 200 μL of 0.4 N HCl. After 30 min, lysates were neutralized with 50 μL of 4 N KOH, and the suspension was centrifuged at 800× g for 5 min. For determination of cAMP, cAMP-binding protein isolated from bovine adrenal glands was incubated with [^3H]cAMP (2 nM), 50 μL of cell lysate or cAMP standard (0–16 pmol) at 4°C for 150 min, in a total volume of 300 μL. Bound radioactivity was separated by rapid filtration through GF/C glass fiber filters and washed twice with 4 mL of 50 mM Tris-HCl, pH 7.4. Radioactivity was measured by liquid scintillation spectrometry.

[3] = system: OPC-DRG co-cultures; experiment: Myelination assay in OPC-DRG co-cultures (Myelination Index); format: cell-based, rat OPCs, mouse DRG neurons; conditions: day 4 to day 15
Method: as §1
GPR17 ligands were tested both in primary OPCs culture and in OPC/DRG co-cultures to assess their pro-differentiation and pro-myelination effect, respectively. According to the type of culture, a specific protocol of treatment was set up. For primary OPCs, cells were seeded on 13 mm poly-D,L-ornithine-coated coverslips (2 × 10^4 cells/well) and maintained for 2 days in Neurobasal medium supplemented with B27 and proliferative factors (PDGF-BB and bFGF). Afterwards, OPC differentiation was induced by removing proliferative factors and by adding T3 and pharmacological treatments with Asinex 1 (1 or 10 nM) and LTD4 (200 nM), selected as reference compound, were performed the following day. After 48 h, cells were fixed for immunocytochemistry (ICC). For OPC/DRG co-cultures, Asinex 1 (10 nM) and UDP (100 μM) were added to cultures at day 4. […]

[4] = system: primary OPCs; experiment: OPC differentiation assay (MBP+ cells, immunocytochemistry); format: cell-based, rat; conditions: 48 h
Method: as §1
GPR17 ligands were tested both in primary OPCs culture and in OPC/DRG co-cultures to assess their pro-differentiation and pro-myelination effect, respectively. According to the type of culture, a specific protocol of treatment was set up. For primary OPCs, cells were seeded on 13 mm poly-D,L-ornithine-coated coverslips (2 × 10^4 cells/well) and maintained for 2 days in Neurobasal medium supplemented with B27 and proliferative factors (PDGF-BB and bFGF). Afterwards, OPC differentiation was induced by removing proliferative factors and by adding T3 and pharmacological treatments with Asinex 1 (1 or 10 nM) and LTD4 (200 nM), selected as reference compound, were performed the following day. After 48 h, cells were fixed for immunocytochemistry (ICC). For OPC/DRG co-cultures, Asinex 1 (10 nM) and UDP (100 μM) were added to cultures at day 4. The pharmacological treatment was repeated every 2 days up to day 15, when cells were fixed for ICC analysis. For more details, see Supplementary Information.
Oligodendrocyte precursor cell cultures
Primary oligodendrocyte precursor cells (OPCs) were isolated from mixed glial cultures prepared from postnatal day 2 Sprague-Dawley rat cortex by shaking cells on an orbital shaker at 200 rpm, as previously described (Fumagalli et al., 2015). OPCs were then collected and separated from microglia by incubation for 1 h in an uncoated Petri dish. […]

T1 sequence (Q09QM4 whole entry): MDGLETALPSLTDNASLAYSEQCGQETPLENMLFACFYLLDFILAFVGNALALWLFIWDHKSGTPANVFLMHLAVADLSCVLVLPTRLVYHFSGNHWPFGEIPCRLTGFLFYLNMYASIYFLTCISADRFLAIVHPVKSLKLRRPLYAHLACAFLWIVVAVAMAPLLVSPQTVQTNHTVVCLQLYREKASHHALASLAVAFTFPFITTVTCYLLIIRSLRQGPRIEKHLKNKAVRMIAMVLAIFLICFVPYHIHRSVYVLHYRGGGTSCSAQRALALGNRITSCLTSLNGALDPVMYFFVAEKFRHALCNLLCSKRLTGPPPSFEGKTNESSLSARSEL

CSCCNc1nc(SCCC(F)(F)F)nc2c1ncn2[C@@H]1O[C@H](COP(=O)(O)OP(=O)(O)C(Cl)(Cl)P(=O)(O)O)[C@@H](O)[C@H]1O [Cangrelor]
ratio between Cangrelor and Asinex 1 affinities [1]: 7 | IC50 ([2]; primary OPCs, constant ASN 1 concentration of 10 nM, read-out: IC50, antagonism of ASN 1-mediated inhibition of forskolin-stimulated adenylyl cyclase activity): 10.2 ± 0.8 nM

COc1ccc(-n2c(SC(C)C(=O)Nc3ccccc3)nnc2-c2ccccc2OC)cc1 (stereo not drawn) [Asinex 1, 2-[[5-(2-methoxyphenyl)-4-(4-methoxyphenyl)-4H-1,2,4-triazol-3-yl]thio]-N-phenyl-propanamide]
Myelination Index (control 100%) ([3]; 10 nM): 240.3 ± 64.43% | percentage of MBP+ cells (control set to 100%) ([4]; 1 nM): 166.5 ± 16.21% | percentage of MBP+ cells (control set to 100%) ([4]; 10 nM): 158.3 ± 15.77% | EC50 ([2]; primary OPCs, 10 μM forskolin, 0.1–50 nM, read-out: EC50, inhibition of forskolin-stimulated cAMP formation): 6.5 ± 0.8 nM | pharmacological profile at GPR17 ([2]; primary rat OPCs, nucleotide binding site): full agonist

O=c1ccn([C@@H]2O[C@H](COP(=O)(O)OP(=O)(O)O)[C@@H](O)[C@H]2O)c(=O)[nH]1 [UDP]
Myelination Index (control 100%) ([3]; 100 μM): 193.9 ± 32.31%

CCCCC/C=C\C\C=C/C=C/C=C/[C@@H](SC[C@H](N)C(=O)NCC(=O)O)[C@@H](O)CCCC(=O)O [LTD4]
percentage of MBP+ cells (control set to 100%) ([4]; 200 nM): 171.0 ± 21.70%
